We go through 31 compounds from US9315491B2 (DEVELOPMENT CENTER FOR BIOTECHNOLOGY, priority 2009, dated 2016).

recombinant mTOR, sequence (P42345 1360-2549): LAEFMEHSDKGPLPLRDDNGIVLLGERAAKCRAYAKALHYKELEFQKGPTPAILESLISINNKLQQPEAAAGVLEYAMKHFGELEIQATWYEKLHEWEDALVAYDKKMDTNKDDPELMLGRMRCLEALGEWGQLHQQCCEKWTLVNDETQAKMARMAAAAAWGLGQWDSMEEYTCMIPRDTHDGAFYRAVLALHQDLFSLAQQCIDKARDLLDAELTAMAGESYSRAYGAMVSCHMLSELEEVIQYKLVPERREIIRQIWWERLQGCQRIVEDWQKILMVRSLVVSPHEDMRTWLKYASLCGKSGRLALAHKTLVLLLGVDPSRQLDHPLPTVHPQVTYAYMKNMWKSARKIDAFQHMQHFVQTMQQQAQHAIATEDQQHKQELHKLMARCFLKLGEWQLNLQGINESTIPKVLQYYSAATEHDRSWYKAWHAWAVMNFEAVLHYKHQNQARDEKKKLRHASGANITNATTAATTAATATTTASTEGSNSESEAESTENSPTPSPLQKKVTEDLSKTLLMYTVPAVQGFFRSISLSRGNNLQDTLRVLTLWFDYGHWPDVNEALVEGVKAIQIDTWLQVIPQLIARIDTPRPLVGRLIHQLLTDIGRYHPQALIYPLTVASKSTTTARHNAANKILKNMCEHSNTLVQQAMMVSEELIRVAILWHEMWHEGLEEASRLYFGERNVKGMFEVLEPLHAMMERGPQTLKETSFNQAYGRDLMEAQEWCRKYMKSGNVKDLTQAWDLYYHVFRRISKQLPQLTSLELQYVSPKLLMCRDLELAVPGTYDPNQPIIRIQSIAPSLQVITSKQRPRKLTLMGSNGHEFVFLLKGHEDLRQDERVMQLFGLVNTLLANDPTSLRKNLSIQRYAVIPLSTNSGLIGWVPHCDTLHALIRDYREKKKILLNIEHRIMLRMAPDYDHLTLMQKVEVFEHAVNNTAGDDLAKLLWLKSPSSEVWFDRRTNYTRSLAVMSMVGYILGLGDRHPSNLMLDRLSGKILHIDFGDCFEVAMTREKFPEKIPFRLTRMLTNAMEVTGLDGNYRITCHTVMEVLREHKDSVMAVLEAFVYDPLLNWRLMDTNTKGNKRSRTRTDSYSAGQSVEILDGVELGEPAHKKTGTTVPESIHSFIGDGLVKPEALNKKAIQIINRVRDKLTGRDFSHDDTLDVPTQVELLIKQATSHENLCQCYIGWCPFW

The experiment deals with recombinant mTOR (Homo sapiens (Human), UniProt P42345). As to the kind of experiment: mTOR kinase assay (33P incorporation into 4EBP1). The format is biochemical. The conditions noted are these: compound at 10 μM, 10 μM ATP. As for the experimental part:
The activity of the compound against mTOR was examined by measuring the incorporation of ^33P from [γ-^33P]-ATP into 4EBP1. His-tagged, recombinant human 4EBP1 was expressed in E. coli, purified by nickel-nitrilotriacetic acid (Ni-NTA) resins, and stored at −80° C. Phosphorylation of 4EBP1 by mTOR was assayed in the presence or absence of the compound and performed in a final volume of 25 μl reaction buffer containing 300 ng 4EBP1, 50 ng recombinant mTOR (Invitrogen), 50 mM HEPES (pH 7.5), 1 mM EGTA, 0.01% Polysorbate 20, 10 mM MnCl2, 2.5 mM DTT, 10 μM ATP, and 0.5 μCi [γ-33P]-ATP (PerkinElmir) for 30 min at 30° C. The reactions were terminated by adding 3% phosphoric acid. The ^33P labeled 4EBP1 was transferred onto UniFilter-96 GF/B plate (PerkinElmer) and quantified by Top Count Microplate Scintillation Counter (PerkinElmer). For primary screening of kinase activity inhibition, each test compound was evaluated at […] in duplicate. […] The IC50 values of the compounds were determined after carrying out assays at eight serially diluted concentrations of each compound in duplicate. The results were analyzed using linear regression software (GraphPad Prism 5; GraphPad Software Inc.).
IC50 value is defined as the concentration of the test compound which achieves a half-maximal inhibition of the kinase activity.
As to `COc1ccc(NC(=O)Nc2ccc(-c3ncc(OC)c(N4CCOCC4)n3)cc2)cc1OC` [MTR-0239, 1-(3,4-Dimethoxy-phenyl)-3-[4-(5-methoxy-4-morpholin-4-yl-pyrimidin-2-yl)-phenyl]-urea], the inhibition – broadly, how much of the control response was suppressed – at 10 µM amounted to 89%.
Then `CCOC(=O)c1nc(-c2ccc(Nc3nc4ccccc4[nH]3)cc2)nc(N2CCOCC2)c1OCC` [MTR-0243, 2-[4-(1H-Benzoimidazol-2-ylamino)-phenyl]-5-ethoxy-6-morpholin-4-yl-pyrimidine-4-carboxylic acid ethyl ester], with 92%; and `CCOc1c(C(=O)O)nc(-c2ccc(NC(=O)Nc3cccnc3)cc2)nc1N1CCOCC1` [MTR-0245, 5-Ethoxy-6-morpholin-4-yl-2-[4-(3-pyridin-3-yl-ureido)-phenyl]-pyrimidine-4-carboxylic acid], with 94%.
Then `CCOC(=O)c1nc(-c2ccc(NC(=O)Nc3cccc(NC(=O)C(F)(F)F)c3)cc2)nc(N2CCOCC2)c1OCC` [MTR-0252, 5-Ethoxy-6-morpholin-4-yl-2-(4-{3-[3-(2,2,2-trifluoro-acetylamino)-phenyl]-ureido}-phenyl)-pyrimidine-4-carboxylic acid ethyl ester], with 82%; and `CSc1c(Cl)nc(-c2ccc(NC(=O)Nc3ccc4c(c3)OCO4)cc2)nc1N1CCOCC1` [MTR-0256, 1-Benzo[1,3]dioxol-5-yl-3-[4-(4-chloro-5-methylsulfanyl-6-morpholin-4-yl-pyrimidin-2-yl)-phenyl]-urea], with 90%; and `CCOC(=O)c1ccc(NC(=O)Nc2ccc(-c3ncc(SC)c(N4CCOCC4)n3)cc2)cc1` [MTR-0264, 4-{3-[4-(5-Methylsulfanyl-4-morpholin-4-yl-pyrimidin-2-yl)-phenyl]-ureido}-benzoic acid ethyl ester], with 86%.
Then `CCOC(=O)c1nc(-c2ccc(NC(=O)Nc3ccc(N4CCN(C)CC4)nc3)cc2)nc(N2CCOCC2)c1OCC` [MTR-0275, 5-Ethoxy-2-(4-{3-[6-(4-methyl-piperazin-1-yl)-pyridin-3-yl]-ureido}-phenyl)-6-morpholin-4-yl-pyrimidine-4-carboxylic acid ethyl ester], with 97%; and `CCOC(=O)c1nc(-c2ccc(NC(=O)Nc3ccc(N4CCOCC4)nc3)cc2)nc(N2CCOCC2)c1OCC` [MTR-0276, 5-Ethoxy-6-morpholin-4-yl-2-{4-[3-(6-morpholin-4-yl-pyridin-3-yl)-ureido]-phenyl}-pyrimidine-4-carboxylic acid ethyl ester], with 82%.
For the compound `CSc1cnc(-c2ccc(NC(N)=O)cc2)nc1N1CCOCC1` [MTR-0286, [4-(5-Methylsulfanyl-4-morpholin-4-yl-pyrimidin-2-yl)-phenyl]-urea], the inhibition at 10 µM worked out at 93%.
Then `CSc1cnc(-c2ccc(Nc3nc4ccccc4[nH]3)cc2)nc1N1CCOCC1` [MTR-0289, (1H-Benzoimidazol-2-yl)-[4-(5-methylsulfanyl-4-morpholin-4-yl-pyrimidin-2-yl)-phenyl]-amine], with 91%.
Then `CSc1c(Cl)nc(-c2ccc(NC(=O)Nc3ccc(Br)nc3)cc2)nc1N1CCOCC1` [MTR-0291, 1-(6-Bromo-pyridin-3-yl)-3-[4-(4-chloro-5-methylsulfanyl-6-morpholin-4-yl-pyrimidin-2-yl)-phenyl]-urea], with 89%; and `CSc1c(Cl)nc(-c2ccc(NC(=S)Nc3ccc(C(=O)O)cc3)cc2)nc1N1CCOCC1` [MTR-0293, 4-{3-[4-(4-Chloro-5-methylsulfanyl-6-morpholin-4-yl-pyrimidin-2-yl)-phenyl]-thioureido}-benzoic acid], with 83%; and `CCOC(=O)c1nc(-c2ccc(NC(=O)Nc3cccc4[nH]ncc34)cc2)nc(N2CCOCC2)c1OCC` [MTR-0297, 5-Ethoxy-2-{4-[3-(1H-indazol-4-yl)-ureido]-phenyl}-6-morpholin-4-yl-pyrimidine-4-carboxylic acid ethyl ester], with 83%.
Then `CSc1c(Cl)nc(-c2ccc(NC(=S)Nc3ccc(N4CCOCC4=O)cc3)cc2)nc1N1CCOCC1` [MTR-0304, 1-[4-(4-Chloro-5-methylsulfanyl-6-morpholin-4-yl-pyrimidin-2-yl)-phenyl]-3-[4-(3-oxo-morpholin-4-yl)-phenyl]-thiourea], with 90%; and `CSc1c(Cl)nc(-c2ccc(Nc3nc4ccccc4[nH]3)cc2)nc1N1CCOCC1` [MTR-0305, (1H-Benzoimidazol-2-yl)-[4-(4-chloro-5-methylsulfanyl-6-morpholin-4-yl-pyrimidin-2-yl)-phenyl]-amine], with 82%; and `CSc1c(Cl)nc(-c2ccc(NC(=O)NC(C)C)cc2)nc1N1CCOCC1` [MTR-0306, 1-[4-(4-Chloro-5-methylsulfanyl-6-morpholin-4-yl-pyrimidin-2-yl)-phenyl]-3-isopropyl-urea], with 90%.
Take `CSc1c(Cl)nc(-c2ccc(NC(=O)O)cc2)nc1N1CCOCC1` [MTR-0307, [4-(4-Chloro-5-methylsulfanyl-6-morpholin-4-yl-pyrimidin-2-yl)-phenyl]-carbamic acid]: the inhibition at 10 µM amounted to 82%.
Then `COc1cnc(-c2ccc(Nc3nc4ccccc4[nH]3)cc2)nc1N1CCOCC1` [MTR-0310, (1H-Benzoimidazol-2-yl)-[4-(5-methoxy-4-morpholin-4-yl-pyrimidin-2-yl)-phenyl]-amine], with 86%; and `COc1cnc(-c2ccc(NC(=O)Nc3ccc(OCCN(C)C)cc3)cc2)nc1N1CCOCC1` [MTR-0312, 1-[4-(2-Dimethylamino-ethoxy)-phenyl]-3-[4-(5-methoxy-4-morpholin-4-yl-pyrimidin-2-yl)-phenyl]-urea], with 94%; and `CSc1cnc(-c2ccc(NC(=O)Nc3ccc4c(c3)OCO4)cc2)nc1N1CCOCC1` [MTR-0317, 1-Benzo[1,3]dioxol-5-yl-3-[4-(5-methylsulfanyl-4-morpholin-4-yl-pyrimidin-2-yl)-phenyl]-urea], with 93%.
For the compound `CSc1cnc(-c2ccc(NC(=O)Nc3ccc(N4CCN(C)CC4)cn3)cc2)nc1N1CCOCC1` [MTR-0318, 1-[5-(4-Methyl-piperazin-1-yl)-pyridin-2-yl]-3-[4-(5-methylsulfanyl-4-morpholin-4-yl-pyrimidin-2-yl)-phenyl]-urea], the inhibition at 10 µM came out at 91%.
Consider `CSc1cnc(-c2ccc(NC(=S)Nc3ccc(N4CCOCC4=O)cc3)cc2)nc1N1CCOCC1` [MTR-0319, 1-[4-(5-Methylsulfanyl-4-morpholin-4-yl-pyrimidin-2-yl)-phenyl]-3-[4-(3-oxo-morpholin-4-yl)-phenyl]-thiourea], for which the inhibition at 10 µM stood at 84%.
Then `CCOc1cnc(-c2ccc(NC(=O)Nc3ccc(N4CCSCC4)cc3)cc2)nc1N1CCOCC1` [MTR-0324, 1-[4-(5-Ethoxy-4-morpholin-4-yl-pyrimidin-2-yl)-phenyl]-3-(4-thiomorpholin-4-yl-phenyl)-urea], with 81%.
Then `CSc1c(Cl)nc(-c2ccc(NC(=O)Nc3ccc(N4CCOCC4)cn3)cc2)nc1N1CCOCC1` [MTR-0328, 1-[4-(4-Chloro-5-methylsulfanyl-6-morpholin-4-yl-pyrimidin-2-yl)-phenyl]-3-(5-morpholin-4-yl-pyridin-2-yl)-urea], with 85%.
Turning to `CSc1c(Cl)nc(-c2ccc(NC(=O)Nc3ccc(N)cc3)cc2)nc1N1CCOCC1` [MTR-0329, 1-(4-Amino-phenyl)-3-[4-(4-chloro-5-methylsulfanyl-6-morpholin-4-yl-pyrimidin-2-yl)-phenyl]-urea], the inhibition at 10 µM came out at 97%.
Then `COc1cnc(-c2ccc(NC(=O)Nc3ccc(N4CCN(C)CC4)cn3)cc2)nc1N1CCOCC1` [MTR-0334, 1-[4-(5-Methoxy-4-morpholin-4-yl-pyrimidin-2-yl)-phenyl]-3-[5-(4-methyl-piperazin-1-yl)-pyridin-2-yl]-urea], with 93%; and `COc1cnc(-c2ccc(NC(=S)Nc3ccc(N4CCOCC4=O)cc3)cc2)nc1N1CCOCC1` [MTR-0335, 1-[4-(5-Methoxy-4-morpholin-4-yl-pyrimidin-2-yl)-phenyl]-3-[4-(3-oxo-morpholin-4-yl)-phenyl]-thiourea], with 89%; and `COc1cnc(-c2ccc(NC(N)=O)cc2)nc1N1CCOCC1` [MTR-0336, [4-(5-Methoxy-4-morpholin-4-yl-pyrimidin-2-yl)-phenyl]-urea], with 89%.
On to `COc1cnc(-c2ccc(NC(=O)Nc3ccc(N4CCN(C)CC4)nc3)cc2)nc1N1CCOCC1` [MTR-0338, 1-[4-(5-Methoxy-4-morpholin-4-yl-pyrimidin-2-yl)-phenyl]-3-[6-(4-methyl-piperazin-1-yl)-pyridin-3-yl]-urea], for which the inhibition at 10 µM worked out at 94%.
Then `CSc1cnc(-c2ccc(NC(=O)NC(C)C)cc2)nc1N1CCOCC1` [MTR-0341, 1-Isopropyl-3-[4-(5-methylsulfanyl-4-morpholin-4-yl-pyrimidin-2-yl)-phenyl]-urea], with 83%.
On to `CSc1cnc(-c2ccc(NC(=O)Nc3ccc(OCCN(C)C)cc3)cc2)nc1N1CCOCC1` [MTR-0343, 1-[4-(2-Dimethylamino-ethoxy)-phenyl]-3-[4-(5-methylsulfanyl-4-morpholin-4-yl-pyrimidin-2-yl)-phenyl]-urea], for which the inhibition at 10 µM amounted to 92%.
